Test results from ChEMBL document CHEMBL1629583, “Establishment of in vitro susceptibility testing methodologies and comparative activities of piperacillin in combination with the penem {beta}-lactamase inhibitor BLI-489” (2009).

Experiments:
Assay type in all cases: functional
[1] = system: Enterococcus faecalis; assay: Antimicrobial activity against Enterococcus faecalis clinical isolate after 18 to 22 hrs by broth microdilution method
[2] = system: Proteus vulgaris; assay: Antimicrobial activity against Proteus vulgaris clinical isolate after 18 to 22 hrs by broth microdilution method
[3] = system: Enterococcus gallinarum; assay: Antimicrobial activity against Enterococcus gallinarum clinical isolate after 18 to 22 hrs by broth microdilution method
[4] = system: Klebsiella pneumoniae; assay: Antimicrobial activity against class A extended spectrum beta-lactamase- producing Klebsiella pneumoniae clinical isolate after 18 to 22 hrs by broth microdilution method
[5] = system: Klebsiella pneumoniae; assay: Antimicrobial activity against AmpC- producing Klebsiella pneumoniae clinical isolate after 18 to 22 hrs by broth microdilution method
[6] = system: Escherichia coli; assay: Antimicrobial activity against class A extended spectrum beta-lactamase- and class D OXA- producing Escherichia coli clinical isolate after 18 to 22 hrs by broth microdilution method
[7] = system: Streptococcus pneumoniae; assay: Antimicrobial activity against penicillin-susceptible Streptococcus pneumoniae clinical isolate after 18 to 22 hrs by broth microdilution method
[8] = system: Enterobacter cloacae; assay: Antimicrobial activity against AmpC beta-lactamase-producing Enterobacter cloacae clinical isolate after 18 to 22 hrs by broth microdilution method
[9] = system: Acinetobacter haemolyticus; assay: Antimicrobial activity against Acinetobacter haemolyticus clinical isolate after 18 to 22 hrs by broth microdilution method
[10] = system: Streptococcus agalactiae; assay: Antimicrobial activity against Streptococcus agalactiae clinical isolate after 18 to 22 hrs by broth microdilution method
[11] = system: Enterococcus faecalis; assay: Antimicrobial activity against vancomycin-resistant Enterococcus faecalis clinical isolate after 18 to 22 hrs by broth microdilution method
[12] = system: Escherichia coli; assay: Antimicrobial activity against class A extended spectrum beta-lactamase- producing Escherichia coli clinical isolate after 18 to 22 hrs by broth microdilution method
[13] = system: Citrobacter koseri; assay: Antimicrobial activity against Citrobacter koseri clinical isolate after 18 to 22 hrs by broth microdilution method
[14] = system: Haemophilus parainfluenzae; assay: Antimicrobial activity against Haemophilus parainfluenzae clinical isolate after 18 to 22 hrs by broth microdilution method
[15] = system: Citrobacter freundii; assay: Antimicrobial activity against Citrobacter freundii clinical isolate after 18 to 22 hrs by broth microdilution method
[16] = system: Moraxella catarrhalis; assay: Antimicrobial activity against Moraxella catarrhalis clinical isolate after 18 to 22 hrs by broth microdilution method
[17] = system: Acinetobacter calcoaceticus; assay: Antimicrobial activity against Acinetobacter calcoaceticus clinical isolate after 18 to 22 hrs by broth microdilution method
[18] = system: Providencia stuartii; assay: Antimicrobial activity against Providencia stuartii clinical isolate after 18 to 22 hrs by broth microdilution method
[19] = system: Citrobacter freundii; assay: Antimicrobial activity against AmpC beta-lactamase-producing Citrobacter freundii clinical isolate after 18 to 22 hrs by broth microdilution method
[20] = system: Enterococcus hirae; assay: Antimicrobial activity against Enterococcus hirae clinical isolate after 18 to 22 hrs by broth microdilution method
[21] = system: Staphylococcus haemolyticus; assay: Antimicrobial activity against Staphylococcus haemolyticus clinical isolate after 18 to 22 hrs by broth microdilution method
[22] = system: Acinetobacter johnsonii; assay: Antimicrobial activity against Acinetobacter johnsonii clinical isolate after 18 to 22 hrs by broth microdilution method
[23] = system: Haemophilus influenzae; assay: Antimicrobial activity against beta-lactamase-producing Haemophilus influenzae clinical isolate after 18 to 22 hrs by broth microdilution method
[24] = system: Streptococcus pyogenes; assay: Antimicrobial activity against Streptococcus pyogenes clinical isolate after 18 to 22 hrs by broth microdilution method
[25] = system: Enterococcus faecium; assay: Antimicrobial activity against vancomycin-resistant Enterococcus faecium clinical isolate after 18 to 22 hrs by broth microdilution method
[26] = system: Staphylococcus aureus; assay: Antimicrobial activity against methicillin-resistant Staphylococcus aureus clinical isolate after 18 to 22 hrs by broth microdilution method
[27] = system: Enterococcus avium; assay: Antimicrobial activity against Enterococcus avium clinical isolate after 18 to 22 hrs by broth microdilution method
[28] = system: Pseudomonas aeruginosa; assay: Antimicrobial activity against Pseudomonas aeruginosa clinical isolate after 18 to 22 hrs by broth microdilution method
[29] = system: Klebsiella pneumoniae; assay: Antimicrobial activity against class A extended spectrum beta-lactamase- and class D OXA- producing Klebsiella pneumoniae clinical isolate after 18 to 22 hrs by broth microdilution method
[30] = system: Escherichia coli; assay: Antimicrobial activity against AmpC beta-lactamase-producing Escherichia coli clinical isolate after 18 to 22 hrs by broth microdilution method
[31] = system: Acinetobacter baumannii; assay: Antimicrobial activity against Acinetobacter baumannii clinical isolate after 18 to 22 hrs by broth microdilution method
[32] = system: Enterococcus faecium; assay: Antimicrobial activity against Enterococcus faecium clinical isolate after 18 to 22 hrs by broth microdilution method
[33] = system: Burkholderia cepacia; assay: Antimicrobial activity against Burkholderia cepacia clinical isolate after 18 to 22 hrs by broth microdilution method
[34] = system: Streptococcus pneumoniae; assay: Antimicrobial activity against penicillin-intermediate Streptococcus pneumoniae clinical isolate after 18 to 22 hrs by broth microdilution method
[35] = system: Klebsiella aerogenes; assay: Antimicrobial activity against Enterobacter aerogenes clinical isolate after 18 to 22 hrs by broth microdilution method
[36] = system: Staphylococcus aureus; assay: Antimicrobial activity against methicillin-susceptible Staphylococcus aureus clinical isolate after 18 to 22 hrs by broth microdilution method
[37] = system: Serratia marcescens; assay: Antimicrobial activity against AmpC beta-lactamase-producing Serratia marcescens clinical isolate after 18 to 22 hrs by broth microdilution method
[38] = system: Proteus mirabilis; assay: Antimicrobial activity against Proteus mirabilis clinical isolate after 18 to 22 hrs by broth microdilution method
[39] = system: Serratia marcescens; assay: Antimicrobial activity against Serratia marcescens clinical isolate after 18 to 22 hrs by broth microdilution method
[40] = system: Klebsiella aerogenes; assay: Antimicrobial activity against AmpC beta-lactamase-producing Enterobacter aerogenes clinical isolate after 18 to 22 hrs by broth microdilution method

C[C@H]1COc2c(N3CCN(C)CC3)c(F)cc3c(=O)c(C(=O)O)cn1c23.C[C@H]1COc2c(N3CCN(C)CC3)c(F)cc3c(=O)c(C(=O)O)cn1c23.O [LEVOFLOXACIN]
0.06 mg/L: MIC90 [13] | MIC90 [14] | MIC90 [16] | MIC50 [35]
16 mg/L: MIC50 [6] | MIC90 [17] | MIC90 [18] | MIC90 [21] | MIC50 [30] | MIC90 [31] | MIC90 [38]
4 mg/L: MIC50 [26] | MIC50 [32] | MIC90 [33] | MIC90 [39]
0.12 mg/L: MIC90 [2] | MIC50 [8] | MIC50 [9] | MIC50 [15] | MIC50 [19] | MIC50 [22] | MIC50 [37] | MIC50 [39] | MIC50 [40]
8 mg/L: MIC90 [3] | MIC90 [4] | MIC90 [8] | MIC50 [12] | MIC50 [17] | MIC90 [19] | MIC90 [20] | MIC50 [21] | MIC50 [31] | MIC90 [37] | MIC90 [40]
2 mg/L: MIC50 [5] | MIC90 [9] | MIC50 [11] | MIC90 [15] | MIC90 [22] | MIC50 [27] | MIC90 [27] | MIC50 [33]
0.03 mg/L: MIC [2] | MIC50 [2] | MIC50 [13] | MIC50 [16]
≤ 0.015 mg/L: MIC [14] | MIC50 [14] | MIC [23] | MIC50 [23] | MIC90 [23]
> 16 mg/L: MIC90 [1] | MIC90 [5] | MIC90 [6] | MIC90 [12] | MIC [25] | MIC50 [25] | MIC90 [26] | MIC90 [28] | MIC90 [29] | MIC90 [30] | MIC90 [32]
0.25 mg/L: MIC50 [36]
1 mg/L: MIC50 [1] | MIC50 [3] | MIC50 [7] | MIC90 [7] | MIC50 [10] | MIC90 [10] | MIC50 [18] | MIC50 [20] | MIC50 [28] | MIC50 [29] | MIC90 [34]
0.5 mg/L: MIC50 [4] | MIC50 [24] | MIC90 [24] | MIC50 [34] | MIC90 [35] | MIC90 [36] | MIC50 [38]
